Measured values from patent publication US4312867A, “Antibacterial compounds, processes for their preparation and compositions containing them” (Beecham Group Limited, priority 1979, dated 1982).
In brackets after ≈: the same amount, converted by molar mass. Like-named read-outs stand apart in the source and are kept apart here.

Tests used:
Strep faecalis I = assay: MIC human bacteria (Table 1), serial dilution in nutrient agar; format: cell-based; settings: nutrient agar with 5% chocolated horse blood
Bord bronchiseptica B08 = assay: MIC veterinary bacteria (Table 2), serial dilution in agar; format: cell-based; settings: diagnostic sensitivity test agar
E. coli NCTC 10418 [1] = assay: MIC human bacteria (Table 1), serial dilution in nutrient agar; format: cell-based; settings: Escherichia coli, NCTC10418; E. coli NCTC 10418; nutrient agar with 5% chocolated horse blood; read-out: MIC
Bacillus subtilis 6633 = assay: as above; format: cell-based; settings: nutrient agar with 5% chocolated horse blood
Past multocida PA2 = assay: MIC veterinary bacteria (Table 2), serial dilution in agar; format: cell-based; settings: diagnostic sensitivity test agar
Strep dysgalaciae SPD1 = assay: as above; format: cell-based; settings: diagnostic sensitivity test agar
[2] = system: Erysipelothrix rhusiopathiae NCTC 8163; assay: as above; format: cell-based; settings: NCTC8163; Erysipelothrix rhusiopathiae NCTC 8163; diagnostic sensitivity test agar; read-out: MIC
[3] = system: Strep suis (group D) SPS11; assay: as above; format: cell-based; settings: diagnostic sensitivity test agar
K. aerogenes A = assay: MIC human bacteria (Table 1), serial dilution in nutrient agar; format: cell-based; settings: Klebsiella aerogenes, nutrient agar with 5% chocolated horse blood
Staph aureus Oxford [4] = assay: MIC veterinary bacteria (Table 2), serial dilution in agar; format: cell-based; settings: Staphylococcus aureus; Staph aureus Oxford; diagnostic sensitivity test agar; read-out: MIC
[5] = system: Pasteurella multocida 1633; assay: MIC human bacteria (Table 1), serial dilution in nutrient agar; format: cell-based
E. coli ESS = assay: as above; format: cell-based; settings: Escherichia coli
[6] = system: Staph aureus 152 (pen. sens); assay: MIC veterinary bacteria (Table 2), serial dilution in agar; format: cell-based; settings: Staphylococcus aureus, diagnostic sensitivity test agar
E. coli NCTC 10418 [7] = assay: as above; format: cell-based; settings: Escherichia coli, NCTC10418; E. coli NCTC 10418; diagnostic sensitivity test agar; read-out: MIC
Strep pneumoniae CN33 = assay: MIC human bacteria (Table 1), serial dilution in nutrient agar; format: cell-based; settings: nutrient agar with 5% chocolated horse blood
[8] = system: Staph aureus B4 (pen. resis); assay: MIC veterinary bacteria (Table 2), serial dilution in agar; format: cell-based; settings: Staphylococcus aureus; Staph aureus B4 (pen. resis); diagnostic sensitivity test agar; read-out: MIC
Ps. aeruginosa 10662 = assay: MIC human bacteria (Table 1), serial dilution in nutrient agar; format: cell-based; settings: Pseudomonas aeruginosa, nutrient agar with 5% chocolated horse blood
Strep uberis SPU1 = assay: MIC veterinary bacteria (Table 2), serial dilution in agar; format: cell-based; settings: diagnostic sensitivity test agar
Staph aureus Oxford [9] = assay: MIC human bacteria (Table 1), serial dilution in nutrient agar; format: cell-based; settings: Staphylococcus aureus, nutrient agar with 5% chocolated horse blood
Strep pyogenes A 64/848 = assay: as above; format: cell-based; settings: nutrient agar with 5% chocolated horse blood
Staph aureus W2827 = assay: as above; format: cell-based; settings: Staphylococcus aureus, nutrient agar with 5% chocolated horse blood
E. coli E1 = assay: MIC veterinary bacteria (Table 2), serial dilution in agar; format: cell-based; settings: Escherichia coli, diagnostic sensitivity test agar
Strep pyogenes C 2761 = assay: MIC human bacteria (Table 1), serial dilution in nutrient agar; format: cell-based; settings: nutrient agar with 5% chocolated horse blood
Past multocida PA1 = assay: MIC veterinary bacteria (Table 2), serial dilution in agar; format: cell-based; settings: diagnostic sensitivity test agar
S. typhimurium S18 = assay: as above; format: cell-based; settings: Salmonella enterica, diagnostic sensitivity test agar
Strep pyogenes B 2788 = assay: MIC human bacteria (Table 1), serial dilution in nutrient agar; format: cell-based; settings: nutrient agar with 5% chocolated horse blood
[10] = system: Corynebacterium xerosis 9755; assay: as above; format: cell-based; settings: nutrient agar with 5% chocolated horse blood
[11] = system: Haemophilus influenzae Q1; assay: as above; format: cell-based; settings: Haemophilus influenzae, Q1
Strep agalactiae SPA1 = assay: MIC veterinary bacteria (Table 2), serial dilution in agar; format: cell-based; settings: diagnostic sensitivity test agar
S. dublin S7 = assay: as above; format: cell-based; settings: Salmonella enterica, diagnostic sensitivity test agar
P. mirabilis 889 = assay: MIC human bacteria (Table 1), serial dilution in nutrient agar; format: cell-based; settings: Proteus mirabilis
Staph aureus Russell = assay: as above; format: cell-based; settings: Staphylococcus aureus, nutrient agar with 5% chocolated horse blood
[12] = system: Corynebacterium pyogenes CY1; assay: MIC veterinary bacteria (Table 2), serial dilution in agar; format: cell-based; settings: Trueperella pyogenes, diagnostic sensitivity test agar
[13] = Serum binding by ultrafiltration of porcine serum; format: in vitro ADME; settings: pig, 8 mcg/ml, microbiological assay, read-out: % bound to pig serum (converted)
Method: Serum binding was assessed by ultrafiltration of porcine serum containing compounds at 8 mcg/ml, and through an Amicon CF50A ultrafiltration cone. Separation of ultrafiltrate was achieved by centrifugation. Unbound concentrations of compound were measured in the ultrafiltrate by microbiological assay (B. subtilis ATCC 6633) against standards prepared in saline.

Bord bronchiseptica B09 = assay: MIC veterinary bacteria (Table 2), serial dilution in agar; format: cell-based; settings: diagnostic sensitivity test agar
Sarcina lutea 8340 = assay: MIC human bacteria (Table 1), serial dilution in nutrient agar; format: cell-based; settings: nutrient agar with 5% chocolated horse blood
[14] = system: 12 strains of M. suipneumoniae; assay: anti-mycoplasmal MIC, Friis broth solidified with agarose (Table 4), mean over strains; format: cell-based; settings: Mesomycoplasma hyopneumoniae, 144 h; mean of 12 strains; 6 days at 37° C.; read-out: Mean MIC for above 12 strains of M. suipneumoniae
[15] = system: Haemophilus influenzae Wy21; assay: MIC human bacteria (Table 1), serial dilution in nutrient agar; format: cell-based; settings: Haemophilus influenzae, WY21
M. suipneumoniae HK(2) = assay: anti-mycoplasmal MIC, Friis broth solidified with agarose (Table 4); format: cell-based; settings: Mesomycoplasma hyopneumoniae, 144 h, 6 days at 37° C.
[16] = system: Neisseria catarrhalis 1502; assay: MIC human bacteria (Table 1), serial dilution in nutrient agar; format: cell-based; settings: nutrient agar with 5% chocolated horse blood

| Compound | MIC (Strep faecalis I) [µg/mL] | MIC (Bord bronchiseptica B08) [µg/mL] | MIC (E. coli NCTC 10418 [1]) [µg/mL] | MIC (Bacillus subtilis 6633) [µg/mL] | MIC (Past multocida PA2) [µg/mL] | MIC (Strep dysgalaciae SPD1) [µg/mL] | MIC [2] [µg/mL] | MIC [3] [µg/mL] | MIC (K. aerogenes A) [µg/mL] | MIC (Staph aureus Oxford [4]) [µg/mL] | MIC [6] [µg/mL] | MIC (E. coli NCTC 10418 [7]) [µg/mL] | MIC (Strep pneumoniae CN33) [µg/mL] | MIC [8] [µg/mL] | MIC (Ps. aeruginosa 10662) [µg/mL] | MIC (Strep uberis SPU1) [µg/mL] | MIC (Staph aureus Oxford [9]) [µg/mL] | MIC (Strep pyogenes A 64/848) [µg/mL] | MIC (Staph aureus W2827) [µg/mL] | MIC (E. coli E1) [µg/mL] | also measured |
| --- | --- | --- | --- | --- | --- | --- | --- | --- | --- | --- | --- | --- | --- | --- | --- | --- | --- | --- | --- | --- | --- |
| C/C(=C\C(=O)OCCCCCCS(N)(=O)=O)CC1OCC(CC2OC2C(C)C(C)O)C(O)C1O (stereo not shown) [Example 2, 6-Sulphamoylhexyl monate A] | > 100 | 20 (≈ 39.4 µM) | > 100 | 0.5 (≈ 0.985 µM) | 0.039 (≈ 0.0768 µM) | 0.625 (≈ 1.23 µM) | 20 (≈ 39.4 µM) | 2.5 (≈ 4.92 µM) | > 100 | 2.5 (≈ 4.92 µM) | 1.25 (≈ 2.46 µM) | > 80 | 0.2 (≈ 0.394 µM) | 2.5 (≈ 4.92 µM) | > 100 | 0.625 (≈ 1.23 µM) | 5 (≈ 9.85 µM) | 0.5 (≈ 0.985 µM) | 5 (≈ 9.85 µM) | > 80 | MIC ([5]; Pasteurella multocida 1633, nutrient agar with 5% chocolated horse blood, read-out: MIC): 2.5 µg/mL (≈ 4.92 µM); MIC (E. coli ESS): 0.5 µg/mL (≈ 0.985 µM); MIC (Strep pyogenes C 2761): 1 µg/mL (≈ 1.97 µM); MIC (Past multocida PA1): 0.312 µg/mL (≈ 0.615 µM); MIC (S. typhimurium S18): > 80 µg/mL; MIC (Strep pyogenes B 2788): 1 µg/mL (≈ 1.97 µM); MIC ([10]; read-out: MIC): > 100 µg/mL; MIC [11]: 0.1 µg/mL (≈ 0.197 µM); MIC (Strep agalactiae SPA1): 1.25 µg/mL (≈ 2.46 µM); MIC (S. dublin S7): > 80 µg/mL; MIC (P. mirabilis 889; 889): 50 µg/mL (≈ 98.5 µM); MIC (Staph aureus Russell): 5 µg/mL (≈ 9.85 µM); MIC [12]: 10 µg/mL (≈ 19.7 µM); fraction unbound [13]: 0.287; MIC (Bord bronchiseptica B09): 10 µg/mL (≈ 19.7 µM); MIC (Sarcina lutea 8340; Micrococcus luteus, read-out: MIC): > 100 µg/mL |
| C/C(=C\C(=O)OCCCS(=O)(=O)N(C)C)CC1OCC(CC2OC2C(C)C(C)O)C(O)C1O (stereo not shown) [Example 4, 3-N,N-Dimethylsulphamoylpropyl monate A] | > 100 | 80 (≈ 162 µM) | > 100 | 2.5 (≈ 5.06 µM) | 0.312 (≈ 0.632 µM) | 2.5 (≈ 5.06 µM) | > 80 | 40 (≈ 81 µM) | > 100 | 2.5 (≈ 5.06 µM) | 2.5 (≈ 5.06 µM) | > 80 | 1 (≈ 2.03 µM) | 5 (≈ 10.1 µM) | > 100 | 2.5 (≈ 5.06 µM) | 10 (≈ 20.3 µM) | 2.5 (≈ 5.06 µM) | 10 (≈ 20.3 µM) | > 80 | MIC [14]: 750 µg/mL (≈ 1520 µM); MIC ([5]; Pasteurella multocida, 1633): 0.5 µg/mL (≈ 1.01 µM); MIC (E. coli ESS; E. coli ESS, nutrient agar with 5% chocolated horse blood, read-out: MIC): 2.5 µg/mL (≈ 5.06 µM); MIC [15]: 0.1 µg/mL (≈ 0.203 µM); MIC (M. suipneumoniae HK(2)): 1000 µg/mL (≈ 2030 µM); MIC (Strep pyogenes C 2761): 5 µg/mL (≈ 10.1 µM); MIC (Past multocida PA1): 0.625 µg/mL (≈ 1.27 µM); MIC (S. typhimurium S18): > 80 µg/mL; MIC (Strep pyogenes B 2788): 2.5 µg/mL (≈ 5.06 µM); MIC [10]: No Growth; MIC [11]: 0.1 µg/mL (≈ 0.203 µM); MIC [16]: 1 µg/mL (≈ 2.03 µM); MIC (Strep agalactiae SPA1): 2.5 µg/mL (≈ 5.06 µM); MIC (S. dublin S7): > 80 µg/mL; MIC (P. mirabilis 889; P. mirabilis 889, nutrient agar with 5% chocolated horse blood, read-out: MIC): > 100 µg/mL; MIC (Staph aureus Russell): 10 µg/mL (≈ 20.3 µM); MIC [12]: > 80 µg/mL; fraction unbound [13]: 0.053; MIC (Bord bronchiseptica B09): 20 µg/mL (≈ 40.5 µM); MIC (Sarcina lutea 8340): No Growth |
